Source: patent publication US11633502B2, “Bone marrow-, reticuloendothelial system-, and/or lymph node-targeted radiolabeled liposomes and methods of their diagnostic and therapeutic use” (Memorial Sloan Kettering Cancer Center, priority 2016, dated 2023)

Experiment: Blood cell counts of GT3 liposome treated mice after ionizing radiation
Format: in vivo, C57/B6 mice
Conditions: after exposure to 2 or 4 Gy
Protocol: FIGS. 28A and 28B show blood cell counts of GT3 liposome treated mice after ionization radiation. White blood cell (WBC) (FIG. 28A) and lymph (FIG. 28B) counts are shown for mice treated with 2 Gy+GT3 containing liposomes, 2 Gy, 4 Gy+GT3 containing liposomes, and 4 Gy.
C57/B6 mice were treated with GT3 containing BMT liposomes with 10 mg/kg GT3 at 24 h prior to 2 and 4 Gy. Blood cells were counted at 0, 1, 4, 6, 13 days after irradiation. […] Lymphocyte recovery is the most significant. […] This effect was not seen when GT3 was not targeted to the bone marrow.

## CC(C)=CCC/C(C)=C/CC/C(C)=C/CC[C@]1(C)CCc2cc(O)c(C)c(C)c2O1 [GT3]
  recovery of lymphocyte and neutrophils: not seen
